Results reported in PMC6277198, “Molecular basis for activation of lecithin:cholesterol acyltransferase by a compound that increases HDL cholesterol” (eLife, 2018).
Residue numbers refer to the chain shown, from its start.

How the values were obtained:
Experiment in all cases: DHE acyltransferase assay with peptide-based HDLs
Assay type in all cases: biochemical
LCAT R244H = target: T1, LCAT R244H (Homo sapiens, UniProt P04180, R268H)
T1 construct: hydrolysis of 4-methylumbelliferyl palmitate (MUP) by full-length LCAT; made in house; host or cells: HEK293F (transient transfection, secreted)
T1 sequence (P04180 25-440 R268H): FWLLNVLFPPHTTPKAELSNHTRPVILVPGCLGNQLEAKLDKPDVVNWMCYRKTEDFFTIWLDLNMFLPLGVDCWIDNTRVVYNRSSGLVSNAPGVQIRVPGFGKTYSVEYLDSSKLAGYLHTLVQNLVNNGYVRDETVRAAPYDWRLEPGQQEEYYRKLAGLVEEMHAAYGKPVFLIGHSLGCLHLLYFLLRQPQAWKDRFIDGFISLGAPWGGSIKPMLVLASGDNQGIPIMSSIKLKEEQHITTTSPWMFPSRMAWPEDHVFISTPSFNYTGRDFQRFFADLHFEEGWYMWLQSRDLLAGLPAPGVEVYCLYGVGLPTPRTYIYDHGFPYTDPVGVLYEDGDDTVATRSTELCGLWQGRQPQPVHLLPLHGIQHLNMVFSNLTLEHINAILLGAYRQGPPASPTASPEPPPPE
Experimental: (§1) Peptide-based HDLs were used in this assay as there is no difference between peptide HDLs and ApoA-I HDLs in both HDL binding and acyltransferase assays ([Manthei et al., 2017]). The peptide HDLs were made using the ESP24218 peptide with the sequence […] ([Dassuex et al., 1999]; [Li et al., 2015]) with a DPPC:POPC:DHE ratio of 47:47:6 as previously described ([Manthei et al., 2017]). The assay was performed in 384-well low volume black microplates (Corning 4514) with a total assay volume of 16 μL. In each reaction, LCAT was diluted in assay buffer to 15 μg mL^−1 in the presence of either 1% DMSO or 10 μM 2 with 1% DMSO. Compound 2 was used in this assay because it has lower background fluorescence than 1. The DHE HDLs were diluted in 1X PBS with 1 mM EDTA and 5 mM β-mercaptoethanol. 8 μL of the HDLs were added to the plate, and the reactions were initiated with 8 μL of LCAT, so that LCAT was assayed at 7.5 μg mL^−1 with and without 5 μM compound with a range of DHE concentrations from 0 to 50 μM. The reactions were stopped after 25 min at 37 °C with the addition of 4 μL of stop solution (1X PBS with 1 mM EDTA, 5 U mL^−1 cholesterol oxidase (COx), and 7% Triton X100). Following the addition of stop solution, the plates were incubated for another 60 min at 37 °C to allow for the COx to react. After the plates were re-equilibrated at room temperature, fluorescence was determined on a SpectraMax plate reader with excitation at 325 nm and emission at 425 nm, with a 420 nm cutoff. Reactions without LCAT were used for background subtraction, and reactions without LCAT and stop solution lacking COx were used to generate a standard curve for DHE. Reactions were performed in triplicate with three independent experiments per LCAT variant. Data were processed via background subtraction to remove excess fluorescence that results from the higher concentrations of DHE. […] Outliers were removed using automatic outlier elimination within Prism. For statistical analysis, the Vmax for each variant was compared to WT using a one-way analysis of variance followed by Tukey’s multiple comparisons post-test in GraphPad Prism.
(§2) To determine EC50 values, compound 2 was titrated from 0.004 to 10 μM, and the DHE concentration was set at 50 μM. LCAT was diluted in assay buffer and compound 2 dilutions were made with assay buffer containing 5.3% DMSO. 1.5 μL compound was added, then 6.5 μL LCAT, followed by 8 μL DHE. Dilutions were adjusted so that LCAT was assayed at 7.5 μg mL^−1, as above. All values were background subtracted to buffer with the same concentration of compound 2. A standard curve was included in one experiment with DHE from 0 to 50 μM in order to adjust the final fluorescence values to a rate by dividing by the slope of the line and time (25 min), as above. Outliers were removed using automatic outlier elimination within Prism. For statistical analysis, the EC50 for each variant was compared to WT using a one-way analysis of variance followed by Tukey’s multiple comparisons post-test in GraphPad Prism.

LCAT Y51S/G71I = target: T2, LCAT Y51S/G71I (Homo sapiens, UniProt P04180, G95I/Y75S)
T2 construct: hydrolysis of 4-methylumbelliferyl palmitate (MUP) by full-length LCAT; made in house; host or cells: HEK293F (transient transfection, secreted)
T2 sequence (P04180 25-440 Y75S/G95I): T1 sequence (P04180 25-440 R268H) with Y51S, G71I, H244R
Experimental: as §1, §2

WT LCAT = target: T3, WT LCAT (Homo sapiens, UniProt P04180); design: hydrolysis of 4-methylumbelliferyl palmitate (MUP) by full-length LCAT; made in house; host or cells: HEK293F (transient transfection, secreted)
T3 sequence (P04180 25-440): T1 sequence (P04180 25-440 R268H) with H244R
Experimental: as §1
as §2, with “Outliers were removed using automatic outlier elimination within Prism. For statistical analysis, the EC50 for each variant was compared to WT using a one-way analysis of variance followed by Tukey’s multiple comparisons post-test in GraphPad Prism.” left out

EC50 (LCAT R244H; compound 2 titrated from 0.004 to 10 μM, DHE 50 μM): 4.6 ± 2 µM
acyltransferase rate (LCAT R244H; highest concentration tested, 10 μM compound 2): 26 µM/h
acyltransferase activity in the presence of compound 2 (LCAT Y51S/G71I; Y51S/G71I variant): failed to increase activity
DHE assay EC50 (LCAT Y51S/G71I; Y51S/G71I, compound 2 titrated from 0.004 to 10 μM, DHE 50 μM): no effect
Fold activation, DHE acyltransferase activity (WT LCAT; WT LCAT, peptide-based HDLs): 2.8 fold
acyltransferase rate (WT LCAT; WT LCAT, lowest concentration of compound 2 examined): 11 µM/h
EC50 (WT LCAT; WT, compound 2 titrated from 0.004 to 10 μM, DHE 50 μM): 0.28 ± 0.09 µM
Vmax, DHE assay (WT LCAT; with 5 μM compound 2 (22 without)): 37 μM DHE-ester hr^−1
SMILES: O=C1CC(O)(C(F)(F)F)c2c(C3CCN(c4cnc(C(F)(F)F)cn4)CC3)n[nH]c2N1 (centres unmarked) [compound 2, 4-Hydroxy-4-(trifluoromethyl)−3-(1-(5-(trifluoromethyl)pyrazin-2-yl)piperidin-4-yl)−4,5-dihydro-1H-pyrazolo[3,4-b]pyridin-6(7H)-one]
